Assay [1] concerns the target T1, human PPAR α (Homo sapiens, UniProt Q07869).
T1 construct: expressed in transfected cells; host or cells: HepG2 (ATCC HB-8065) or 293T cells (ATCC CRL-1573)
T1 sequence (Q07869 239-466 limits assumed): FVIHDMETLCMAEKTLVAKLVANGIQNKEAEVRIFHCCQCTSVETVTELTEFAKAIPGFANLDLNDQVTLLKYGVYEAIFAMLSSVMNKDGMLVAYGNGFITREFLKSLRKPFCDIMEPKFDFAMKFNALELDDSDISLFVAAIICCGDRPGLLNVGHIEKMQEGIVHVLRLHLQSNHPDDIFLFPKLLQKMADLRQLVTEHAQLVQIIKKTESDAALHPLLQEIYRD
In words: Exogeneous PPAR α agonist assay (GAL4 DNA binding domain/PPAR α ligand binding domain, luciferase) in 293T cells. The conditions noted are these: 25 μM compound, 48 hours, luciferase activity increase relative to the control. The arrangement: scale not given here. It counts as cell-based. Summed up: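 HepG2 or 293T cells (2×10^4/well) lipofectamine-transfected 3 hours with PPAR α, UAS firefly-luciferase and Renilla-luciferase constructs. Compounds then added at 25 μM final and incubated 48 hours at 37° C. PPAR α activation measured as dual firefly/Renilla luciferase luminescence.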

The test system of assay [2] is ob/ob mice. In words: Anti-obesity test: lipid metabolism-related materials and glucose in blood of ob/ob mice. It counts as in vivo. The conditions noted are these: 28 days; for GLU (glucose) / HDL (HDL-cholesterol) / LDL (LDL-cholesterol) / NEFA (free fatty acid) / TG (triglyceride): 100 mg/kg oral twice a day, fasted 16 hours, plasma. As to the method:
(§1) In order to evaluate the anti-obesity activity of the inventive compound, B6.V-Lepob/J mice (laboratory animal team of Korea Research Institute of Chemical Technology) were used for tests and lean mice as a control. Ob/ob mice are model animals for insulin-independent diabetes, suitable for studying the effect of an anti-obesity drug.
(§2) 42 mice weighing 38.6±1.4 g were selected randomly from a pool of ob/ob mice (7-9 weeks old), and divided into groups of 7 mice each. The test was carried out at a constant temperature (24±0.5° C.) and humidity (55±5%) using ventilation system (10-12 times/hour), under a specific pathogen free (SPF) condition created in an automatic on-off cycle of 12 hours.
(§3) The groups were divided to a control group treated only with an excipient, a positive control group treated with fenofibrate, and test groups treated with each of the compounds of Examples 5, 62 and 65, at dosage 100 mg/10 ml/kg body weight. Each of the test and control compounds was diluted with 0.5% CMC to a concentration to match the above dosage, and administered orally using a syringe into the stomach twice a day (9:00 and 18:00) for a period of 4 weeks, and the following characteristics were measured.
3) Measurement of Lipid Metabolism-Related Materials and Insulin Concentration in Blood
28 days after the administration, experimental mice were fasted for 16 hours, and the concentrations of lipid metabolism-related materials such as triglyceride, free fatty acid and cholesterol, and insulin in blood were measured. Specifically, a blood sample was collected from the ocular venous plexus of each mouse and centrifuged to separate plasma. The glucose (GLU), HDL-cholesterol (HDL), LDL-cholesterol (LDL), triglyceride (TG) and free fatty acid (NEFA) levels were measured by enzymatic assay using 2 kinds of Selectra (Vital Lab), an automatic biochemical analyzer, and the insulin concentration was measured by ELISA using an insulin detection kit (Shibayagi).

For assay [3], the system named is ob/ob mice. The assay is described as follows: Anti-obesity test: feed intake in ob/ob mice. It counts as in vivo. As to conditions: 100 mg/kg oral twice a day, first week of the test, P<0.005, FIG. 1a. As to the method:
as §1, §2, §3
1) General Symptoms and Observation of Dead Animal
The conditions, behavioral changes, addictive symptoms and the death rate were observed constantly during the test period.

Assay [4] has as its system ob/ob mice. In words: Oral glucose tolerance test (OGTT) in ob/ob mice. It counts as in vivo. How it is done: as §1, §2, §3
4) Oral Glucose Tolerance Test (OGTT)
28 days after the administration, each of the experimental mice was fasted for 16 hours, 2 g/kg of glucose was administered thereto, a blood sample was collected from the ocular venous plexus thereof at 0, 15, 30, 60 and 120 min from the administration, and the glucose concentration and AUC (area under the curve, Skrumsager et al., J Clin Pharmacol. 43, 1244-1256, 2003) were determined.

Assay [5] has as its target T1, human PPAR α. In words: Exogeneous PPAR α agonist assay (GAL4 DNA binding domain/PPAR α ligand binding domain, luciferase) in HepG2 cells. It counts as cell-based. The conditions noted are these: 25 μM compound, 48 hours, luciferase activity increase relative to the control. How it is done: Step 1) Exogeneous PPAR α Agonist Assay
Cross-activation assay of the compounds of Examples 1 to 134 against human PPAR α was carried out using a DNA construct of PPAR α including its ligand binding domain and GAL4 DNA binding domain (Sher et al., Biochemistry 32, 5598-5604, 1993) to analyze whether any of the compounds binds to the ligand binding domain of PPAR α expressed by the construct to affect the PPAR α activity. When the GAL4 DNA binding domainm which is fused with PPAR α ligand binding domain, binds to UAS (upstream activation sequence) of firefly-luciferase, the luciferase is expressed. Therefore, the effect of each of the compounds of Examples on PPAR α activation can be evaluated by analyzing the activation of luciferase.
Specifically, 2×10^4 of HepG2 (ATCC HB-8065) or 293T cells (ATCC CRL-1573) were aliquotted into each well of a 96-well plate and cultured for overnight at 37° C. in a CO2 incubator (culture condition: DMEM, 10% FBS and 1% antibiotics).
The transformation of PPAR α DNA was traced as follows. First, a mixture of the following ingredients in amounts per well; Solution A (Promega) containing 50 ng of full length human PPAR α DNA, 50 ng of firefly-luciferase construct, 5 ng of Renilla-luciferase construct, 1.0 μl of PLUS™ reagent, and 8.3 μl of a serum-free medium containing no antibiotics; was prepared and kept at room temperature for 15 min. Solution B, which contained 0.5 μl of Lipofectamine™ reagent and 9.5 μl of serum-free medium without antibiotics per well, and Solution C, which contained 50 μl of serum-free medium per well), were prepared. Solutions A, B and C were mixed together to prepare lipofectamin-DNA complex, and the mixture was kept at room temperature for 15 min. Single layer of cells on each well of a 96-well plate were washed with serum-free DMEM, 70 μl of lipofectamine-DNA complex prepared above was added thereto, the plate was incubated at 37° C. in a 5% CO2 incubator for 3 hours to transform the cells, and […] of a diluted solution of each of the compounds of Examples 1 to 134 per well was added to each well to a final concentration 25 μM, and incubated at 37° C. in a CO2 incubator for 48 hours. Then, the medium was removed, 50 μl of passive lysis buffer (Promega) was added thereto, and the plate was shook at room temperature for 20 min to lysis cells. 40 μl of Luciferase Assay reagent of Dual Luciferase Kit […] per 20 μl of cell lysis buffer was added to the plate, followed by reacting at 20° C. for 8 seconds, and 40 μl of Stop & Glo reagent (Promega) as a stop solution was added thereto to quench the reaction. The luminescence intensities of F-luciferase and R-luciferase were measured with MicroLumat Plus (Berthord Technology).

Molecules are shown by their SMILES.

Turning to `Cc1oc(-c2ccc(C(F)(F)F)cc2)nc1CCOc1cccc(CN(CC(=O)O)S(=O)(=O)N(C)C)c1` [Example 65, [N—(N,N-dimethylamino)sulfonyl-N-[3-[2-[2-(4-trifluoromethylphenyl)-5-methyloxazol-4-yl]ethoxy]benzyl]amino]acetic acid], the “Activity at 25 μM Step 1 293T cell” value on human PPAR α [1] is reported as 1. Moreover, in the assay with ob/ob mice [2], the “GLU (glucose)” value was determined as 158.8 ± 44.0 mg/dL, the “HDL (HDL-cholesterol)” value came to 321.4 ± 31.8 mg/dL, the “LDL (LDL-cholesterol)” value worked out at 33.0 ± 9.3 mg/dL and the “NEFA (free fatty acid)” value is reported as 1,006 ± 203 UEq/l. Further, in the assay on ob/ob mice [2], the “TG (triglyceride)” value turned out to be 45.9 ± 4.7 mg/dL, the “GLU concentration compared to the control or positive control group” value is “much lower” and the “HDL concentration” value was “high”. In addition, the “daily feed intake compared to the control group” value in the assay with ob/ob mice [3] is reported as “significantly reduced”. The “total changes in the glucose concentration represented by AUC compared to the control group” value with ob/ob mice [4] (2 g/kg glucose, 0-120 min, P<0.05, P<0.005 and P<0.01, FIG. 3b) is given as “much lower”. The “glucose concentration at 30 and 60 min after the glucose administration compared to the control group” value with ob/ob mice [4] (2 g/kg glucose, P<0.01, P<0.05, FIG. 3a) was “significantly low”. Moreover, the “glucose concentration during the fast compared to the control group” value in the assay with ob/ob mice [4] (ob/ob mice, 28 days, fasted 16 hours, P<0.05, FIG. 3c) is “significantly low”.
For the compound `Cc1ccc(-c2nc(COc3cccc(CN([C@@H](C)C(=O)O)S(=O)(=O)N(C)C)c3)c(C)o2)cc1` [Example 124, (S)-2-[N—(N,N-dimethylamino)sulfonyl-N-[3-[(5-methyl-2-p-tolyloxazol-4-yl)methoxy]benzyl]amino]propionic acid], at human PPAR α [1], the “Activity at 25 μM Step 1 293T cell” value is 5. On human PPAR α [5], the “Activity at 25 μM Step 1 HepG2 cell” value worked out at 40.
As to `Cc1ccc(-c2nc(COc3cccc(CN([C@H](C(=O)O)C(C)C)S(=O)(=O)N(C)C)c3)c(C)o2)cc1` [Example 125, (S)-3-methyl-2-[N—(N,N-dimethylamino)sulfonyl-N-[3-[(5-methyl-2-p-tolyloxazol-4-yl)methoxy]benzyl]amino]butyric acid], the “Activity at 25 μM Step 1 293T cell” value at human PPAR α [1] came to 3. In addition, the “Activity at 25 μM Step 1 HepG2 cell” value on human PPAR α [5] stood at 22.
Consider `Cc1ccc(-c2nc(COc3cccc(C(C)N(CC(=O)O)S(=O)(=O)N(C)C)c3)c(C)o2)cc1` (stereo not shown) [Example 126, [N—(N,N-dimethylamino)sulfonyl-N-[1-[[3-(5-methyl-2-p-tolyloxazol-4-yl)methoxy]phenyl]ethyl]amino]acetic acid], for which, on human PPAR α [1], the “Activity at 25 μM Step 1 293T cell” value was found to be 4. In addition, on human PPAR α [5], the “Activity at 25 μM Step 1 HepG2 cell” value was 62.
For `Cc1ccc(-c2nc(COc3cccc(C(C)N(CC(=O)O)S(=O)(=O)N4CCCC4)c3)c(C)o2)cc1` (stereo not shown) [Example 127, [N-(pyrrolidinyl)sulfonyl-N-[1-[[3-(5-methyl-2-p-tolyloxazol-4-yl)methoxy]phenyl]ethyl]amino]acetic acid], in that order: 3 and 50.
Consider `CCN(CC)S(=O)(=O)N(CC(=O)O)C(C)c1cccc(OCc2nc(-c3ccc(C)cc3)oc2C)c1` (stereo not shown) [Example 128, [N—(N,N-diethylamino)sulfonyl-N-[1-[[3-(5-methyl-2-p-tolyloxazol-4-yl)methoxy]phenyl]ethyl]amino]acetic acid], for which the “Activity at 25 μM Step 1 293T cell” value at human PPAR α [1] is reported as 2. The “Activity at 25 μM Step 1 HepG2 cell” value on human PPAR α [5] was 25.
Regarding `Cc1ccc(-c2nc(COc3cccc(C(C)N(CC(=O)O)S(=O)(=O)N(C)C(C)C)c3)c(C)o2)cc1` (stereo not shown) [Example 129, [N—(N-isopropyl-N-methylamino)sulfonyl-N-[1-[[3-(5-methyl-2-p-tolyloxazol-4-yl)methoxy]phenyl]ethyl]amino]acetic acid], the “Activity at 25 μM Step 1 293T cell” value at human PPAR α [1] was determined as 3. Also, at human PPAR α [5], the “Activity at 25 μM Step 1 HepG2 cell” value was found to be 43.
For `Cc1ccc(-c2nc(COc3cccc(CN(CCC(=O)O)S(=O)(=O)N(C)C)c3)c(C)o2)cc1` [Example 130, 3-[N—(N,N-dimethylamino)sulfonyl-N-[3-[(5-methyl-2-p-tolyloxazol-4-yl)methoxy]benzyl]amino]propionic acid], in that order: 4 and 36.
For the compound `CN(C)S(=O)(=O)N(CC(=O)O)Cc1cccc(OCCc2coc(-c3ccccc3)n2)c1` [Example 131, [N—(N,N-dimethylarino)sulfonyl-N-[3-[(2-phenyloxazol-4-yl)ethoxy]benzyl]amino]acetic acid], the “Activity at 25 μM Step 1 293T cell” value on human PPAR α [1] was 5. For the same compound, the “Activity at 25 μM Step 1 HepG2 cell” value on human PPAR α [5] was 41.
The corresponding values for `CN(C)S(=O)(=O)N(CC(=O)O)Cc1ccc(OCCc2coc(-c3ccccc3)n2)cc1` [Example 132, [N—(N,N-dimethylamino)sulfonyl-N-[4-[(2-phenyloxazol-4-yl)ethoxy]benzyl]amino]acetic acid] are 5 and 32.
For the compound `CN(c1ccc(Cl)cc1)S(=O)(=O)N(CC(=O)O)Cc1ccc(OCCc2coc(-c3ccccc3)n2)cc1` [Example 133, [N—[[N-(4-chlorophenyl)-N-methyl]amino]sulfonyl-N-[4-[(2-phenyloxazol-4-yl)ethoxy]benzyl]amino]acetic acid], at human PPAR α [1], the “Activity at 25 μM Step 1 293T cell” value is listed as 4. In addition, the “Activity at 25 μM Step 1 HepG2 cell” value at human PPAR α [5] is listed as 34.
Consider `CC(C)OC(=O)C(C)(C)Oc1ccc(C(=O)c2ccc(Cl)cc2)cc1` [fenofibrate, reference compound], for which, in the assay with ob/ob mice [2], the “GLU (glucose)” value is 223.1 ± 77.2 mg/dL, the “HDL (HDL-cholesterol)” value was 280.5 ± 28.5 mg/dL, the “LDL (LDL-cholesterol)” value turned out to be 27.0 ± 4.7 mg/dL and the “NEFA (free fatty acid)” value is 1,003 ± 80 UEq/l. Further, the “TG (triglyceride)” value in the assay on ob/ob mice [2] is 49.4 ± 6.1 mg/dL.
